{"source": "patent US7531320B2", "about": "“Modulation of β-catenin/TCF-activated transcription” (priority 2003, dated 2009)", "key": {"c-myc promoter": {"test_system": "c-myc promoter", "assay": "ChIP assay, c-myc promoter in SW480 cells", "type": "cell-based, human", "details": "25 μM, 8 hours", "experimental": "FIG. 5. COMPOUND 1 inhibits the expression of cyclin D1. • A. Cyclin D1 levels are decreased with COMPOUND 1 treatment. Western blot analysis was performed on 25 μg of SW480 whole cell lysates treated for 4, 8, or 24 hours with either 25 μM of COMPOUND 1 or control (0.5% DMSO). Immunoblotting was performed using anti-Cyclin D1 antibodies (Santa Cruz Biotechnology Inc.). • B. In vivo occupancy of cyclin D1 and c-myc promoters by CBP and p300. […] ChIP assays were performed on promoter of c-myc from SW480 cells which was treated for 8 hours with COMPOUND 1 (25 μM) or control (0.5% DMSO). CBP (AC-26, a generous gift from Dr. David Livingston, Harvard University, Boston, Mass.) or p300 (C-20, Santa Cruz Biotechnology Inc.) specific antibodies were used to evaluate the promoter occupancy by CBP or p300 in presence of COMPOUND 1 or control (DMSO) treatment.\nFormaldehyde cross-linking and chromatin immunoprecipitation assays of SW480 cells were performed as described previously (Barlev et al., “Acetylation of p53 activates transcription through recruitment of coactivators/histone acetyltransferases,” Mol. Cell 8:1243-54 (2001); El-Osta et al., “Analysis of chromatin-immunopurified MeCP2-associated fragments,” Biochem. Biophys. Res. Commun. 289:733-37 (2001); Shang et al., “Formation of the androgen receptor transcription Complex,” Mol. Cell 9:601-10 (2002)). […]"}, "β-catenin/CBP complex": {"molecular_target": "T1, β-catenin/CBP complex (Homo sapiens, UniProt Q92793)", "T1 construct": "endogenous in cells; host or cells: SW480", "T1 sequence (Q92793 whole entry, one chain of several)": "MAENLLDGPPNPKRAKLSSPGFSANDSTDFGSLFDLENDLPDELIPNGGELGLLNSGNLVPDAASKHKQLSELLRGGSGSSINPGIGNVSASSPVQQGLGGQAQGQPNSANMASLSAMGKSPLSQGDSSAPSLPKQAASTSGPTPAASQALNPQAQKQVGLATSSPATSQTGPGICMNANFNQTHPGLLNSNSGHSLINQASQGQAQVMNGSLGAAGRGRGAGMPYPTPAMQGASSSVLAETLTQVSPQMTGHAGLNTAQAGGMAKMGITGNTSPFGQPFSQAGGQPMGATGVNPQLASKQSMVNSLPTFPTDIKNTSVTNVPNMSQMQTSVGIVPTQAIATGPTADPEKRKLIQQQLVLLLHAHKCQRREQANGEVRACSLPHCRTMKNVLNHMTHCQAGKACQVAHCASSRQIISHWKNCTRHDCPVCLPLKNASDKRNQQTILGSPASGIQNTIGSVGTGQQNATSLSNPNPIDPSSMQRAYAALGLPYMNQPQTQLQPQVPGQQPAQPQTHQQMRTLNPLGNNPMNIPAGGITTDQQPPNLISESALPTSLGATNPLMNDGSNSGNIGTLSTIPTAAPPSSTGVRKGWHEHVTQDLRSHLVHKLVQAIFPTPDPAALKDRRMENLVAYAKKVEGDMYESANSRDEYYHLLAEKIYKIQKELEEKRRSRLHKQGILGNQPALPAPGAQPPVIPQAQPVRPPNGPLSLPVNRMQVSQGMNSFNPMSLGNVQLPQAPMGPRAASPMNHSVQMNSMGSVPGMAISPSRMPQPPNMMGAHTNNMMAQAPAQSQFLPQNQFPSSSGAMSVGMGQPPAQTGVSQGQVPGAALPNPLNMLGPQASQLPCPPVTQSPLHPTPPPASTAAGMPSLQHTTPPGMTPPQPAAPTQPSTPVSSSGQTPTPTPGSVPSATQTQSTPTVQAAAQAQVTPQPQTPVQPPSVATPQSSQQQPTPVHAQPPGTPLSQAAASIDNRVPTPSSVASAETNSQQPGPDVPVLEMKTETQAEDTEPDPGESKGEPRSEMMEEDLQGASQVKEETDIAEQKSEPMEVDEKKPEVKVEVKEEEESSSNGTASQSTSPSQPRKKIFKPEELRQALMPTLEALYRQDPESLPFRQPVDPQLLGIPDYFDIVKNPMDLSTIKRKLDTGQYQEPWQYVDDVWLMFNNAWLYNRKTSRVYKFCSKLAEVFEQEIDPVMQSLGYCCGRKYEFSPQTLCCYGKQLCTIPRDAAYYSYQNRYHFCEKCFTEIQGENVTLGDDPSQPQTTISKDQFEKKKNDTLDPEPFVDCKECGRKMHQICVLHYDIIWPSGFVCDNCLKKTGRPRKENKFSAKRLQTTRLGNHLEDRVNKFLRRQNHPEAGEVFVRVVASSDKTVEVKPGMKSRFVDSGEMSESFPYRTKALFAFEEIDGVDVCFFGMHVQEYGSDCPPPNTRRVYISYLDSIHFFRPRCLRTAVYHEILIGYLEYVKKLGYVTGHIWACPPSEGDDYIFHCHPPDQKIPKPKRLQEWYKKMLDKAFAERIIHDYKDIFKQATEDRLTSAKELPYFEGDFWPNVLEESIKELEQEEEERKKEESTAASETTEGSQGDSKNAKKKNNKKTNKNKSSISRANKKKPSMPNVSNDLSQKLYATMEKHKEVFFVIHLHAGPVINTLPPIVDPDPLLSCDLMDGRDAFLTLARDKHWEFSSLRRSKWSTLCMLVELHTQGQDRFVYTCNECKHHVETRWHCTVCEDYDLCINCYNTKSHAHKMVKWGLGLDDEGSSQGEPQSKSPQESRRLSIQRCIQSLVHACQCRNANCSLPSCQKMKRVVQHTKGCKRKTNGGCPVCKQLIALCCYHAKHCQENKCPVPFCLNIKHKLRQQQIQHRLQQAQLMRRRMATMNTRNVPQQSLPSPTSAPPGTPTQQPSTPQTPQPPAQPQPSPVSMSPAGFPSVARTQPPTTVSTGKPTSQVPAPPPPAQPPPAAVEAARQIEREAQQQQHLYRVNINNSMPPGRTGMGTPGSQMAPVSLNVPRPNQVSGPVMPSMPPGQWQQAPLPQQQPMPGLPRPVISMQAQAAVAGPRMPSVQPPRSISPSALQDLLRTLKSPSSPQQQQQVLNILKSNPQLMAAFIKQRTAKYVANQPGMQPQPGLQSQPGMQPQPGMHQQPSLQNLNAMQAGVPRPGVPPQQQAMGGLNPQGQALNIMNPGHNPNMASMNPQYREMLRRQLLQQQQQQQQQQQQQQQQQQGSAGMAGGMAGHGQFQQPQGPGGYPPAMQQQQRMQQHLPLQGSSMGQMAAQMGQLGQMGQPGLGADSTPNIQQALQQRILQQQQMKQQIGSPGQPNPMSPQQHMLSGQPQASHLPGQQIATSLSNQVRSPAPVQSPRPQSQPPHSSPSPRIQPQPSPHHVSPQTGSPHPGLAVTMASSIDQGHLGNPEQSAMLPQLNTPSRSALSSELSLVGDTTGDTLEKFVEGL", "assay": "Co-immunoprecipitation of β-catenin with CBP in SW480 cells", "type": "cell-based", "experimental": "FIG. 3. COMPOUND 1 disrupts the β-catenin/CBP complex but not the p300/β-catenin complex. • A. Full-length Xenopus laevis β-catenin (1.1, 2.2, and 3.3 μg) or murine CBP (0.14, 0.28, 0.55, 1.1, and 2.2 μg) plasmids were cotransfected in SW480 cells along with the β-catenin/TCF (1.1 μg) reporter gene construct. Empty pcDNA3 vector was used to equalize the amount of DNA used in each reaction. Dual luciferase assays were performed 24 hours post COMPOUND 1 treatment. All experiments were performed in duplicate and values plotted as means +/−standard deviation. • B. COMPOUND 1 competes with β-catenin for CBP. SW480 cells were treated with 5 or 10 μM of COMPOUND 1 or control (0.5% DMSO). 24 hours post treatment, lysates were incubated with beads coated with either control the antibody, or anti-CBP, or anti-p300 antibodies. Co-immunoprecipitated proteins were subjected to gel electrophoresis and immunoblotting using anti-β-catenin antibodies. The arrows point to the immunoprecipitated β-catenin (doublets). • C. CBP (1-111) is the minimal region of interaction with β-catenin. SW480 cells transfected with a CBP deletion series were subjected to immunoprecipitation using anti-β-catenin antibodies coated on Protein A-agarose beads. The immune complexes were washed and subjected to gel electrophoresis followed by immunoblotting using anti-His antibodies. […]"}}}
{"smiles": "O=C1C(Cc2ccc(O)cc2)N2C(=O)CCN(C(=O)NCc3ccccc3)C2CN1Cc1cccc2ccccc12", "note": "(stereo not shown) [COMPOUND 1]", "values": [{"measurement": "Association of CBP with the c-myc promoter", "setting": "c-myc promoter", "value": "completely and selectively blocks"}, {"measurement": "Level of p300 associated with the c-myc promoter", "setting": "c-myc promoter", "value": "increased"}, {"measurement": "CBP fragments binding to immunoprecipitated β-catenin in presence of excess COMPOUND 1", "setting": "β-catenin/CBP complex; CBP (1-111), (1-211), (1-351), 50 μM COMPOUND 1", "value": "dramatically competed away"}, {"measurement": "Immunoprecipitation of β-catenin with CBP", "setting": "β-catenin/CBP complex; SW480 cells, 5 or 10 μM, 24 hours, concentration dependent", "value": "inhibited"}]}
